The text below walks through data of patent US10179161B2, “Compositions and methods for enhancing cardiac function in the neonate” (priority 2016, dated 2019).

One assay concerns CyPD. The settings on record: cited from earlier work.
For the next assay, the system named is adult animals. The settings on record: 10 mg/Kg IV; cited from earlier work.
The subject of assay [1] is supercomplex assembly (synthasomes). Put plainly: synthasome levels by clear native immunoblot in adult heart mitochondria. Type of assay: biochemical, mice. The settings on record: 0.5 mM; n=7. The protocol: Inhibition of CyPD should […] the assembly of the ETC into supercomplexes.
Adult heart mitochondria were used to show decreased supercomplex assembly after PTP opening and increased supercomplex assembly after PTP inhibition or deletion (FIG. 1). A: Mitochondrial permeability transition was induced by 60 μM free Ca^2+ (arrow) and was inhibited by 0.5 mM ADP or 200 nM CsA (top panel). Swelling, indicating PTP opening and a fall in absorbance, is reversible after the addition of 250 μM EGTA (arrow; bottom panel). […] The experimental conditions are summarized below the blot. […] Note that the ATP synthase IGA results a white reaction product, so the shading is correct. (N=4, * p≤0.05, ** p≤0.001 by T-test).
For orientation: Immunoblotting shows a protein as a band on a membrane.

For the compound Alisporivir, in the assay on CyPD, the “potency as a CyPD inhibitor relative to CsA” value is reported as “about as potent as CsA”. For the same compound, the “effects of ischemia reperfusion injury in the heart” value with adult animals was “ameliorate”.

As to `Nc1ncnc2c1ncn2[C@@H]1O[C@H](COP(=O)(O)OP(=O)(O)O)[C@@H](O)[C@H]1O` [ADP], the “Ca2+-induced PT decrease of synthasome levels” value in assay [1] is recorded as “inhibited”.

Regarding `CC[C@H]1C[C@H](C)[C@@]2(NC1=O)O[C@@H](C[C@H](O)[C@@H](C)CC/C=C/C=C(\C)[C@@H]1C/C=C/C=C/[C@H](O)[C@H](C)[C@@H](O)[C@@H](CCC(C)=O)C(=O)N[C@@H](C(C)C)C(=O)N[C@@H](Cc3cccc(O)c3)C(=O)N3CCC[C@H](N3)C(=O)O1)[C@H](C)[C@H](O)[C@@H]2C` [Sangliferin A, Sanglifehrin A], in the assay on CyPD, the “K0.5 as a CyPD inhibitor” value is reported as 2 nM and the “potency as a CyPD inhibitor relative to CsA” value is reported as “more potent”.
